Measurements: patent publication US9522921B2, “Photochromic spirooxazine compounds” (Sabic Global Technologies, B.V., priority 2015, dated 2016)

Test: Absorption spectrum in toluene upon irradiation with UV-A radiation
Format: physicochemical
Excerpt: The properties of the compound characterized by Structure A were investigated.

color displayed upon irradiation (upon irradiation with UV-A radiation): bluish-green color | maximum absorption (upon irradiation with UV-A radiation (open merocyanine form)): 658 nm
SMILES: CN1c2ccccc2C(C)(C)C12C=Nc1cc(N(c3ccccc3)c3ccc4ccccc4c3)c3ccccc3c1O2 (centres unmarked) [Structure A, 1,3,3-trimethyl-N-(naphthalen-2-yl)-N-phenylspiro[indoline-2,2′-naphtho[1,2-b][1,4]oxazin]-6′-amine]
